# Assay results as given in patent US11299453B2 (Universität zu Köln, priority 2017, dated 2022).
# How the values were obtained:
# [1] = tested on: pre-purified cardiac clusters of murine αPIG-AT25 iPSCs; experiment: Cell yield, flow cytometry and morphology of pre-purified miPSC cardiac clusters; format: cell-based
# Method: The differentiation of transgenic mPSCs was initiated in mass cultures as briefly described below. One million cells were transferred per non-adhering 10 cm dish with 14 ml differentiation medium composed of Iscove's Modified Dulbecco's Medium (IMDM) with GlutaMAX (Life Technologies) supplemented with 20% FBS, 1×NEAA and 100 μM β-ME. Embryoid bodies (EBs) from day 2 of differentiation were transferred in a 250 ml spinner flask (CELLSPIN 250, Integra Biosciences, Fernwald, Germany) with a density of 3×10^4 EBs per 200 ml of differentiation medium. On the first 2 days of differentiation medium was supplemented with 50 μg/ml L-ascorbic acid phosphate (AA, Wako pure chemicals industry, Japan) in order to promote the development of cardiac cells. For the selection of GFP-expressing CMs, 50 ml of the medium was exchanged with fresh differentiation medium and 8 μg/ml puromycin (Life Technologies) were supplemented on day 9 of differentiation. Two days later, the cardiac clusters were transferred on non-adhering 10 cm dishes with fresh differentiation medium containing 8 μg/ml puromycin. In the further course of differentiation medium was exchanged every 2-3 days. If not otherwise specified, the purification of GFP-positive CMs with puromycin was continued until day 16 of differentiation. For single cell analyses and transfer of PSC-derived CMs on cell culture plates, cardiac clusters were dissociated with 0.25% trypsin-EDTA (Life Technologies) supplemented with 50 U/ml DNase I (AppliChem, Darmstadt, Germany) for 20-30 min at 37° C. The mPSC-derived CMs were filtered through a polyamide membrane with […] pore size (Sefar, Heiden, Switzerland). Cell numbers were determined with a Neubauer hemocytometer and cells were stored on ice until further use.
# Aiming at complete elimination of remaining PSCs in PSC-derived cell aggregates, murine cardiac clusters were pre-purified with 2-4 μg/ml puromycin from day 9 until day 14 of differentiation in order to prevent complete removal of PSCs and then treated with SM6 for 2 days to assess its potential for removal of contaminating PSCs in the absence of puromycin. After treatment, cardiac clusters were dissociated with 0.25% trypsin-EDTA supplemented with 50 U/ml of DNase I and the level of PSC contamination was determined using colony formation assay, flow cytometry for SSEA-1 and RT-PCR for Oct4. […] Developing PSC colonies on MEF plates were quantified and visualized with 1% crystal violet (Fluka Analytical, St. Louis, USA) diluted in methanol (Applichem). […]
# Cells were measured with an Attune acoustic focusing cytometer (Life Technologies) and data was analyzed with the Attune Cytometric software v1.2.5 (Life Technologies). Marker expression was analyzed in a gated population of 10^4 viable cells. […]
# [2] = tested on: contaminating colony-forming PSCs in unpurified EBs of murine iPSCs; experiment: Colony formation assay after treatment of unpurified EBs; format: cell-based; settings: day 9 to day 16: SM6 1 μM then 5 μM from day 14; puromycin 8 μg/ml
# Method: Aiming at complete elimination of remaining PSCs in PSC-derived cell aggregates, murine cardiac clusters were pre-purified with 2-4 μg/ml puromycin from day 9 until day 14 of differentiation in order to prevent complete removal of PSCs and then treated with SM6 for 2 days to assess its potential for removal of contaminating PSCs in the absence of puromycin. After treatment, cardiac clusters were dissociated with 0.25% trypsin-EDTA supplemented with 50 U/ml of DNase I and the level of PSC contamination was determined using colony formation assay, flow cytometry for SSEA-1 and RT-PCR for Oct4. In colony formation assays 2×10^5 cells were plated on a 6 cm cell culture dish containing MEF and cultured in maintenance medium supplemented with 1000 U/ml of mLIF for 7-10 days. Developing PSC colonies on MEF plates were quantified and visualized with 1% crystal violet (Fluka Analytical, St. Louis, USA) diluted in methanol (Applichem).
# Purifying the whole CM population including GFP-negative CMs in murine PSC-derived EBs was tested with SM6 as well. […] The percentage of CM population in EBs was monitored by flow cytometry and the amount of contaminating PSCs was quantified by colony formation assay as described above. Fluorescence images of PSC-derived cell aggregates were captured with a Zeiss Axiovert 200M fluorescence microscope and analyzed with Zeiss Axiovision 4.5 software. […]
Compound,"morphology and contractility of cardiac clusters ([1]; 1 μM, 5 μM and 10 μM, 48 hours)","fraction of GFP−/cTnT− non-CMs ([1]; 10 μM, flow cytometry)","fraction of GFP+/cTnT+ CMs of the viable cell population ([1]; increasing concentrations of SM6, flow cytometry)",reduction of contaminating colony-forming PSCs [2],reduction of total cell yield compared to DMSO-treated control ([1]; puromycin 8 μg/ml)
"Oc1ccccc1CN[C@@H]1CCCC[C@H]1NCc1ccccc1O [SM6, (1R,2R)-N,N′-di(2-hydroxybenzyl)-1,2-diaminocyclohexane]",not compromised,7%,up to 74%,98.88±1.04%,
"COc1ccc(C[C@H](N)C(=O)N[C@H]2[C@@H](O)[C@H](n3cnc4c(N(C)C)ncnc43)O[C@@H]2CO)cc1 [puromycin, reference compound]",,,,97.55±4.02%,20.55±14.43%
